{"source": "patent US20240102022A1", "about": "“MODULATING BONE MORPHOGENIC PROTEIN (BMP) SIGNALING IN THE TREATMENT OF ALZHEIMER'S DISEASE” (CZ Biohub SF, LLC, priority 2020, published 2024)", "key": {"[1]": {"tested_on": "phospho-SMAD 1/5/8 in human fetal neurospheres expressing mutant APP", "assay": "phospho-SMAD 1/5/8 immunofluorescence staining in neurospheres treated with BMP receptor inhibitor", "type": "cell-based", "details": "neurospheres treated for 1 week, different doses; FIGS. 5B and C", "from_the_text": "(§1) A human fetal neural stem cell line from University of California Irvine was developed from fetal neural tissue at 18 week gestational age enriched for CD133+ cells. The use of neural progenitor cells as non-hESC stem cells in this study is compliant to Stanford Stem Cell Research Oversight (SCRO) Protocol 194 pre-approved by the Internal Review Board (IRB)/SCRO of the Stanford Research Compliance Office (RCO). Informed consent was obtained, and standard material transfer agreement signed. Cells were grown in nonadherent ultra-low attachment well plates in X-VIVO 15 media (LONZA) supplemented with LIF (10 ng/ml), N2 Supplement, N-acetylcysteine (63 ug/ml), Heparin (2 ug/ml), EGF (20 ng/ml), and FGF (20 ng/ml).\n(§2) cDNA for mutant APP harboring the Swedish and Indiana mutations was cloned into a pHIV-Zsgreen backbone obtained from Addgene. Lipofectamine 2000 was used to transduce the construct (either pHIV-Zsgreen+mutant APP or pHIV-Zsgreen alone) into H293T cells and media was collected after 48 hours. Virus was ultra-centrifuged and resuspended in PBS then titered before infecting human fetal neurospheres.\nNeurospheres were cytospun onto slides and fixed in ice-cold methanol for 5 minutes. Slides were rinsed 3 times in phosphate-buffered saline (PBS) at room temperature, followed by blocking in 3% BSA in PBS for 1 hour at room temperature. […]"}, "[2]": {"tested_on": "Zsgreen control neurospheres", "assay": "Colony counts of Zsgreen-infected control human fetal neurospheres after 1 week of treatment", "type": "cell-based", "details": "1 week treatment; FIG. 5E", "from_the_text": "as §1, §2\nHuman neurospheres were dissociated into single cells and infected with either a lentiviral construct containing pHIV-Zsgreen+mutant APP or pHIV-Zsgreen alone and allowed to grow for a week. […] Colonies were counted after 7 days."}}, "data": [{"compound": "c1ccc2c(-c3cnn4cc(-c5ccc(N6CCNCC6)cc5)cnc34)ccnc2c1", "note": "[LDN-193189]", "values": [{"measurement": "pSMAD 1/5/8 level after treatment", "setting": "[1]", "result": "substantially decreased"}, {"measurement": "impact on Zsgreen control neurosphere growth", "setting": "[2]", "result": "minimal impact"}]}]}
